Converted amounts (≈) assume the structure as drawn. The source made the active and inactive calls. The rule behind the calls is not given here.
What was measured:
Staphylococcus aureus [1] = test: Antibacterial activity against methicillin-resistant Staphylococcus aureus ATCC 43300 after 20 to 24 hrs by CLSI method; type: functional
Staphylococcus aureus [2] = test: Potentiation of oxacillin-mediated antibacterial activity against methicillin-resistant Staphylococcus aureus ATCC 43300 assessed as decrease in oxacillin MIC at 32 ug/ml after 20 to 24 hrs by CLSI method relative to control; type: functional
MEF = test: Cytotoxicity against MEF assessed as cell viability at 8 to 128 ug/ml by MTS assay; type: cell-based; conditions: mouse
Staphylococcus aureus [3] = test: Potentiation of oxacillin-mediated antibacterial activity against methicillin-resistant Staphylococcus aureus ATCC 43300 assessed as growth inhibition at 32 ug/ml after 24 hrs by epsilometer test; type: functional, organism-based
Staphylococcus aureus [4] = test: Antibacterial activity against methicillin-resistant Staphylococcus aureus ATCC 43300 assessed as growth inhibition at 32 ug/ml measured up to 24 hrs by time kill assay; type: functional, organism-based
Staphylococcus aureus [5] = test: Potentiation of oxacillin-mediated antibacterial activity against methicillin-resistant Staphylococcus aureus ATCC 43300 assessed as growth inhibition at 32 ug/ml measured within 6 hrs by time kill assay; type: functional, organism-based
Staphylococcus aureus [6] = test: Potentiation of penicillin-mediated antibacterial activity against methicillin-resistant Staphylococcus aureus ATCC 43300 assessed as decrease in penicillin MIC at 32 ug/ml by checkerboard method relative to control; type: functional
Staphylococcus aureus [7] = test: Potentiation of carbenicillin-mediated antibacterial activity against methicillin-resistant Staphylococcus aureus ATCC 43300 assessed as decrease in carbenicillin MIC at 32 ug/ml by checkerboard method relative to control; type: functional
Staphylococcus aureus [8] = test: Potentiation of cephazolin-mediated antibacterial activity against methicillin-resistant Staphylococcus aureus ATCC 43300 assessed as decrease in cephazolin MIC at 32 ug/ml by checkerboard method relative to control; type: functional
Staphylococcus aureus [9] = test: Potentiation of cephalexin-mediated antibacterial activity against methicillin-resistant Staphylococcus aureus ATCC 43300 assessed as decrease in cephalexin MIC at 32 ug/ml by checkerboard method relative to control; type: functional
Staphylococcus aureus [10] = test: Potentiation of cefoxitin-mediated antibacterial activity against methicillin-resistant Staphylococcus aureus ATCC 43300 assessed as decrease in cefoxitin MIC at 32 ug/ml by checkerboard method relative to control; type: functional
Staphylococcus aureus [11] = test: Potentiation of cephamandole-mediated antibacterial activity against methicillin-resistant Staphylococcus aureus ATCC 43300 assessed as decrease in cephamandole MIC at 32 ug/ml by checkerboard method relative to control; type: functional
Staphylococcus aureus [12] = test: Potentiation of cefmetazole-mediated antibacterial activity against methicillin-resistant Staphylococcus aureus ATCC 43300 assessed as decrease in cefmetazole MIC at 32 ug/ml by checkerboard method relative to control; type: functional
Staphylococcus aureus [13] = test: Potentiation of ceftriaxone mediated antibacterial activity against methicillin-resistant Staphylococcus aureus ATCC 43300 assessed as decrease in ceftriaxone MIC at 32 ug/ml by checkerboard method relative to control; type: functional
Staphylococcus aureus [14] = test: Potentiation of cefoperazone mediated antibacterial activity against methicillin-resistant Staphylococcus aureus ATCC 43300 assessed as decrease in cefoperazone MIC at 32 ug/ml by checkerboard method relative to control; type: functional
Staphylococcus aureus [15] = test: Potentiation of ceftazidime mediated antibacterial activity against methicillin-resistant Staphylococcus aureus ATCC 43300 assessed as decrease in ceftazidime MIC at 32 ug/ml by checkerboard method relative to control; type: functional
Staphylococcus aureus [16] = test: Potentiation of cefotaxime mediated antibacterial activity against methicillin-resistant Staphylococcus aureus ATCC 43300 assessed as decrease in cefotaxime MIC at 32 ug/ml by checkerboard method relative to control; type: functional
Staphylococcus aureus [17] = test: Potentiation of cefepime mediated antibacterial activity against methicillin-resistant Staphylococcus aureus ATCC 43300 assessed as decrease in cefepime MIC at 32 ug/ml by checkerboard method relative to control; type: functional
Staphylococcus aureus [18] = test: Antibacterial activity against methicillin-resistant Staphylococcus aureus ATCC 43300 assessed as change in bacterial surface at 32 ug/ml after 4 hrs by scanning electron microscopic analysis; type: functional, organism-based
Staphylococcus aureus [19] = test: Potentiation of oxacillin-mediated antibacterial activity against methicillin-resistant Staphylococcus aureus ATCC 43300 assessed as appearance of rougher bacterial surface at 32 ug/ml after 4 hrs by scanning electron microscopic analysis; type: functional, organism-based
Staphylococcus aureus [20] = test: Cellular uptake in methicillin-resistant Staphylococcus aureus ATCC 43300 by HPLC analysis in presence of oxacillin; type: ADME, organism-based; conditions: in vivo
Staphylococcus aureus [21] = test: Potentiation of oxacillin-mediated antibacterial activity against methicillin-resistant Staphylococcus aureus R16 clinical isolate at 32 ug/ml after 20 to 24 hrs by CLSI method; type: functional
Staphylococcus aureus [22] = test: Potentiation of oxacillin-mediated antibacterial activity against methicillin-resistant Staphylococcus aureus R36 clinical isolate at 32 ug/ml after 20 to 24 hrs by CLSI method; type: functional
Staphylococcus aureus [23] = test: Potentiation of oxacillin-mediated antibacterial activity against methicillin-resistant Staphylococcus aureus R304 clinical isolate at 32 ug/ml after 20 to 24 hrs by CLSI method; type: functional
Staphylococcus aureus [24] = test: Potentiation of oxacillin-mediated antibacterial activity against methicillin-resistant Staphylococcus aureus R306 clinical isolate at 32 ug/ml after 20 to 24 hrs by CLSI method; type: functional
Staphylococcus aureus [25] = test: Potentiation of oxacillin-mediated antibacterial activity against methicillin-resistant Staphylococcus aureus R314 clinical isolate at 32 ug/ml after 20 to 24 hrs by CLSI method; type: functional
Staphylococcus aureus [26] = test: Potentiation of oxacillin-mediated antibacterial activity against methicillin-resistant Staphylococcus aureus R15 clinical isolate assessed as decrease in oxacillin MIC at 32 ug/ml after 20 to 24 hrs by CLSI method relative to control; type: functional
Staphylococcus aureus [27] = test: Potentiation of oxacillin-mediated antibacterial activity against methicillin-resistant Staphylococcus aureus R16 clinical isolate assessed as decrease in oxacillin MIC at 32 ug/ml after 20 to 24 hrs by CLSI method relative to control; type: functional
Staphylococcus aureus [28] = test: Potentiation of oxacillin-mediated antibacterial activity against methicillin-resistant Staphylococcus aureus R36 clinical isolate assessed as decrease in oxacillin MIC at 32 ug/ml after 20 to 24 hrs by CLSI method relative to control; type: functional
Staphylococcus aureus [29] = test: Potentiation of oxacillin-mediated antibacterial activity against methicillin-resistant Staphylococcus aureus R50 clinical isolate assessed as decrease in oxacillin MIC at 16 ug/ml after 20 to 24 hrs by CLSI method relative to control; type: functional
Staphylococcus aureus [30] = test: Potentiation of oxacillin-mediated antibacterial activity against methicillin-resistant Staphylococcus aureus R306 clinical isolate assessed as decrease in oxacillin MIC at 32 ug/ml after 20 to 24 hrs by CLSI method relative to control; type: functional
Staphylococcus aureus [31] = test: Potentiation of oxacillin-mediated antibacterial activity against methicillin-resistant Staphylococcus aureus R308 clinical isolate assessed as decrease in oxacillin MIC at 32 ug/ml after 20 to 24 hrs by CLSI method relative to control; type: functional
Staphylococcus aureus [32] = test: Potentiation of oxacillin-mediated antibacterial activity against methicillin-resistant Staphylococcus aureus R314 clinical isolate assessed as decrease in oxacillin MIC at 32 ug/ml after 20 to 24 hrs by CLSI method relative to control; type: functional

CCCCCCCCCCCCOCc1cn([C@@H]2O[C@H](CO)[C@@H](O)[C@H](O)[C@H]2O)nn1
MIC (Staphylococcus aureus [1]): 256 µg/mL (≈ 596 µM) | fold change (FC) (Staphylococcus aureus [2]): 128 | Activity (MEF): Non-toxic | growth inhibition (GI) (Staphylococcus aureus [3]): Active | growth inhibition (GI) (Staphylococcus aureus [4]): inactive | growth inhibition (GI) (Staphylococcus aureus [5]): Active | fold change (FC) (Staphylococcus aureus [6]): <=256 | fold change (FC) (Staphylococcus aureus [7]): <=256 | fold change (FC) (Staphylococcus aureus [8]): <=256 | fold change (FC) (Staphylococcus aureus [9]): <=256 | fold change (FC) (Staphylococcus aureus [10]): <=256 | fold change (FC) (Staphylococcus aureus [11]): <=256 | fold change (FC) (Staphylococcus aureus [12]): <=256 | fold change (FC) (Staphylococcus aureus [13]): <=256 | fold change (FC) (Staphylococcus aureus [14]): <=256 | fold change (FC) (Staphylococcus aureus [15]): <=256 | fold change (FC) (Staphylococcus aureus [16]): <=256 | fold change (FC) (Staphylococcus aureus [17]): <=256 | Activity (Staphylococcus aureus [18]): inactive | Activity (Staphylococcus aureus [19]): Active | Drug uptake (Staphylococcus aureus [20]): Active | MIC (Staphylococcus aureus [21]): 64 µg/mL | MIC (Staphylococcus aureus [22]): 8 µg/mL | MIC (Staphylococcus aureus [23]): 256 µg/mL | MIC (Staphylococcus aureus [24]): 32 µg/mL | MIC (Staphylococcus aureus [25]): 16 µg/mL | MIC (Staphylococcus aureus [26]): 2 µg/mL | MIC (Staphylococcus aureus [27]): 4 µg/mL | MIC (Staphylococcus aureus [28]): 8 µg/mL | MIC (Staphylococcus aureus [29]): 8 µg/mL | MIC (Staphylococcus aureus [30]): 16 µg/mL | MIC (Staphylococcus aureus [31]): 4 µg/mL | MIC (Staphylococcus aureus [32]): 32 µg/mL

Source: ChEMBL document CHEMBL3608269, “Triazole-Linked Glycolipids Enhance the Susceptibility of MRSA to β-Lactam Antibiotics” (ACS Med Chem Lett, 2015)
